Experimental data: patent US10117431B2, “Compounds and methods for improving plant performance” (Los Alamos National Security, LLC, priority 2013, dated 2018)

Columns and labels:
Format in all cases: in vivo
Alfalfa (Variety Ladak) = test: Greenhouse seedling emergence, alfalfa; settings: 1 mM seed treatment, 3 days after planting, control 58%
Experimental: The desired treatment concentration of ketosuccinamate was added to an aqueous solution of 0.01% Tween 80 and the pH was set to neutral with KOH. The seeds were dipped in the solution to wet them and allowed to air dry before planting, a process that required less than 15 min. Seeds were planted in vermiculite, sand, peat moss (1:1:2) in the greenhouse and the seedling emergence was tracked. The temperature in the house ranged from 72-82° F. Sinorhizobium meliloti inoculum (commercial innoculum) was mixed into the substrate before planting. 3 days after planting, the following seedling emergence was observed. Control 58%; Ketosuccinamate (1 mM) treated 79%.

[1] = system: Soybeans (Variety Viking); test: Greenhouse seedling emergence, soybean; settings: 1 mM seed treatment, 3 days after planting, controls 12 of 20
Experimental: The desired treatment concentration of ketosuccinamate was added to an aqueous solution of 0.01% Tween 80 and the pH was set to neutral with KOH. The seeds were dipped in the solution to wet them and allowed to air dry before planting, a process that required less than 15 min. Seeds were planted in vermiculite, sand, peat moss (1:1:1) in the greenhouse and the seedling emergence was tracked. The moisture in the germination/growth substrate as maintained between 15-20% of saturation. The temperature in the house ranged from 72-82° F. Bradyrhizobium japonicum (commercial innoculum) was mixed into the substrate before planting. 3 days after planting the following seedling emergence was observed. Controls 12 of 20 had emerged from the soil. Ketosuccinamate (1 mM) treated 16 of 20 had emerged.

[2] = system: Soybean (variety Viking) seeds; test: Germination of treated soybean seeds on moist paper toweling; settings: 10 mM seed treatment, 75-85° F.
Experimental: The desired treatment concentration of ketosuccinamate was added to an aqueous solution of 0.01% Tween 80 and the pH was set to neutral with KOH. The seeds were dipped in the solution to wet them and allowed to air dry before planting, a process that required less than 15 min. Soybean (variety Viking) 22 hr after treatment and initiation of germination on moist paper toweling at 75-85° F. the following germination was observed. 2 of the 20 controls had broken through the pericarp whereas 9 of the 20 ketosuccinamate (10 mM) treated seeds had broken through the pericarp. 24 hours after treatment 6 of the 20 controls had broken the pericarp and 12 of the 20 ketosuccinamate-treated seeds had broken the pericarp.

[3] = system: Alfalfa (variety Ladak) seeds; test: Germination of treated alfalfa seeds on moist paper toweling; settings: 3 days after initiation of germination, 65-75° F., control untreated 80%
Experimental: The desired treatment concentration of ketosuccinamate was added to an aqueous solution of 0.01% Tween 80 and the pH was set to neutral with KOH. The seeds were dipped in the solution to wet them and allowed to air dry before planting, a process that required less than 15 min. Alfalfa (variety Ladak) 3 days after initiation of germination on moist paper toweling at 65-75° F. the following percent germination was observed. Control untreated seeds: 80%, seeds treated with 0.1 mM ketosuccinamate: 88% and seeds treated with 1 mM ketosuccinamate: 93%. At least 30 seeds were used in each set.

With `NC(=O)CC(=O)C(=O)O` [ketosuccinamate, 4-amino-2,4-dioxobutanoic acid] the seedling emergence (Alfalfa (Variety Ladak)) was 79%, the “seedling emergence, number of 20 that had emerged from the soil” value [1] was 16 and the “number of the 20 treated seeds that had broken through the pericarp” value ([2]; 22 hr after treatment, controls 2 of the 20) was 9. The “number of the 20 treated seeds that had broken the pericarp” value ([2]; 24 hours after treatment, controls 6 of the 20) was 12, the percent germination ([3]; seeds treated with 0.1 mM) was 88% and the percent germination ([3]; seeds treated with 1 mM) was 93%.
